The values that follow come from patent publication US4659716A, “Antihistaminic 8-(halo)-substituted 6,11-dihydro-11-(4-piperidylidene)-5H-benzo[5,6]cyclohepta[1,2-b]pyridin es” (Schering Corporation, priority 1986, dated 1987).

Series [1] relates to histamine-induced paw edema. Kind of series: Histamine-induced paw edema in mice (oral). In kind it is in vivo, mice (male CF1). As for the experimental part:
For example, the ability of the compounds to reduce histamine-induced paw edema in mice may be measured by use of the following method.
Male CF1 mice, 25-30 g, are housed under conditions of controlled temperature and humidity with a 12 hour dark/light cycle. Food and water are allowed ad libitum. The mice are randomly assigned to the treatment groups. One hour after treatment with a compound of the invention or vehicle, the mice are lightly anesthetized with ether. The left hind paw of each mouse serves as a control and is injected with 25 μl of isotonic saline. The right hind paw serves as the experimental paw and is injected with 25 μl of isotonic saline containing 13 μg histamine dihydrochloride. Thirty minutes later the mice are killed by cervical dislocation and both hind paws of each mouse are removed by cutting at the tarsal joint. The weight of each paw is recorded and the difference in weight between the compound-treated and the placebo-treated groups is evaluated using Student's "t" test. The ED50 values (the dose causing 50% inhibition of histamine-induced edema) and 95% confidence limits are determind by the Linear Least Square Dose-Response method [Brownlee, K. A., "Statistical Theory And Methodology In Science and Engineering", 2nd Ed., J. Wiley and Sons, New York, 1965, pp. 346-349].

In series [2] the test system is behavior, neurologic function and autonomic function in mice. Conditions: po; score of 2 or greater in at least 3 of 6 animals.
Excerpt: A semiquantitative scoring scale was used where signs normally present (e.g., spontaneous activity, alertness, pupil size) were assigned a "normal" score of 0 and scores of +1, +2 and +3 indicated slight, moderate and marked increases and scores of -1, -2 and -3 indicated slight, moderate and marked decreases from "normality". When a sign occurred that is not normally present (e.g., convulsions, tremors), its magnitude was graded on a 1-3 scale. Each treatment group consisted of 6 animals and evaluations were conducted 1 hour after dosing. Additional observations for lethality were made for up to 24 hours after dosing. Incidence is defined as the observation occurring in an animal with a score of 2 or greater according to the scoring method defined above.
^a Minimal effective dose, defined as the lowest dose that produced a
Series [3] relates to histamine-induced lethality. Kind of series: Prevention of histamine-induced lethality in guinea pigs (A). In kind it is in vivo, guinea pigs (female albino). Particulars: Cavia porcellus; oral, 1 hour prior to i.v. histamine 1.1 mg/kg; read-out: Antihistaminic Activity, A. G. pig. p.o. ED50. As for the experimental part:
A. Prevention of histamine-induced lethality in guinea pigs. […] Doses of the antagonists were administered orally to separate groups of fasted animals 1 hour prior to the challenge with histamine and protection from death recorded for 30 minutes after histamine. ED50 values were determined for each drug by […].

Series [4] is described as follows: Antagonism of physostigmine lethality (B). Format: in vivo, mice. Particulars: mouse, physostigmine-induced lethality; oral, unit inferred; read-out: ED50 in the physostigmine-induced lethality test.
Description: B. Antagonism of Physostigmine Lethality. […] Physostigmine salicylate (b 1.0 mg/kg s.c.) produces 100% lethality when administered to mice grouped 10 per plastic cage (11×26×13 cm). Test agents were administered orally 30 minutes prior to physostigmine. The number of survivors were counted 20 minutes after physostigmine administration.
Another series concerns CNS activity. Kind of series: CNS test procedures B, C and D taken together. Format: in vivo, mice. Conditions: oral. As for the experimental part:
C. […] Mice were injected with 0.6% aqueous acetic acid at 10 mg/kg i.p. 15 minutes after oral administration of the test drug. The number of writhes for each animal was counted during a 10 minute period starting 3 minutes after acetic acid treatment. A writhe was defined as a sequence of arching of the back, pelvic rotation and hind limb extension.
One hour after oral administration of the test drug or vehicle, mice were administered a 13 mA, 60 cycle a.c. electroconvulsant shock (ECS) for 0.2 seconds via corneal electrodes.

The nature of series [5]: Toxicity (no method given). Particulars: in vivo.

A value given as a limit tells only on which side of the number the result lay.

For `Clc1ccc2c(c1)CCc1cccnc1C2=C1CCNCC1` [Compound A, 8-chloro-6,11-dihydro-11-(4-piperidylidene)-5H-benzo[5,6]cyclohepta[1,2-b]pyridine], the “Increased Paw Weight, Mean” value is 19.9 mg in series [1] (oral dose 0.03 mg/kg, 8 animals); 13.0 mg in series [1] (oral dose 0.1 mg/kg, 7 animals); 6.1 mg in series [1] (oral dose 0.3 mg/kg, 8 animals); 2.5 mg in series [1] (oral dose 1.0 mg/kg, 8 animals). For the same compound, the “MED, Lethality” value in series [2] was 300 mg/kg.
Take `Fc1ccc2c(c1)CCc1cccnc1C2=C1CCNCC1` [Compound B, 8-fluoro-6,11-dihydro-11-(4-piperidylidene)-5H-benzo[5,6]cyclohepta[1,2-b]pyridine]: the median effective dose (ED50) in series [1] (Mus musculus, po, 1 h) was under 3 mg/kg; in series [3], 0.09 mg/kg; in series [4], over 320 mg/kg. In addition, in the series on CNS activity, the “Activity in all of the CNS test procedures” value was “relatively inactive”. Further, in series [5], the “Toxicity” value is given as “very low toxicity”.

As usually defined, the ED50 is the dose at which the effect has come halfway, by size or by number of responders.
